Source: a melting point compilation (Tetko et al.; mined from patent text by program, amines drawn as free bases though some values may be those of a salt)

Structure (SMILES) | melting point [°C]
COc1c(C)cc(C)cc1/C=C/C(=O)O | 178 to 180
N=C(O[C@@H]1CCCC=C1Cl)C(Cl)(Cl)Cl | 78 to 79
Cc1ccc(C(=O)NC(C)(C)C)c(Nc2ccc3cn[nH]c3c2)n1 | 107 to 109
O=C(c1ccccc1)N1CC(O)C(O)C(O)C1CO (stereo unspecified) | 159
Cc1cc(C)c(C(=O)c2cc(C(C)(C)C)c(O)c(C(C)(C)C)c2)c(Cl)n1 | 109 to 110
CN(C)C(C)(O)CC12CCC(c3ccccc31)c1ccccc12 (stereo unspecified) | 118 to 121
CCCCCCc1c(Cl)nc(N=CN(C)C)nc1Cl | 59 to 60
Cc1cnccc1Nn1ccc2ccccc21 | 78 to 80
CCCCCCCCCC(=O)SCC(C)(C(=O)Nc1cccc(C(=O)O)c1C)c1ccccc1 (stereo unspecified) | 105 to 111
CC(C#Cc1cccc(Oc2cccs2)c1)N(O)C(N)=O (stereo unspecified) | 110 to 112
COc1ccc(NC(=NC#N)NC(NC(=O)c2cccc(Cl)c2)C(C)(Cl)Cl)cn1 (stereo unspecified) | 189 to 190
Cc1ccc2c(c1)[C@H](Nc1ncnc(NC(=O)C(F)(F)F)n1)[C@@H](C)C2 | 55 to 58
CCCCCC(=O)C=Cc1cc(O)c2c(c1)OC(C)(C)C1CC=C(C)CC21 (stereo unspecified) | 119
Fc1ccc(-c2nn3cc(C(F)(F)F)ccc3c2-c2ccnc(NC3CCCC3)n2)cc1 | 155 to 156
O=C(CCCCCCCBr)OC(C(=O)c1ccccc1)c1ccccc1 (stereo unspecified) | 60 to 61
COc1ccc(CCN(C)CCCC(C#N)(C(=O)OC(C)C)c2ccc(OC)c(OC)c2)cc1OC (stereo unspecified) | 66 to 67
Cc1cc(CBr)cc(Oc2nc(Cl)nc(Cl)c2C(C)C)c1 | 98 to 101
CCC(=O)N[C@@H](C)C(=O)N[C@@H](C)C(=O)NC1CCCCC1 | 299 to 300
Cn1nc2c(N)nc3c(c2c1CCC1CCCCC1)CCCC3 | 230 to 231
CP1(=O)c2ccccc2CN1c1ccc(Oc2ccccc2)cc1 (stereo unspecified) | 176 to 177
COc1ccc(OCCOCn2cnc3ncnc(N)c32)cc1 | 129 to 130
Nc1[nH]nc(-c2ccncc2)c1-c1ccc(F)cc1 | 116 to 118
CSc1c(C#N)c(=O)n(C)c(=O)n1C | 118 to 120

Structure (SMILES) | melting point [°C]
O=C(Nc1c[nH]nc1C(=O)NCCO)c1ccccn1 | 155 to 156
C#Cc1cnn2c(C(F)(F)F)cc(-c3ccc(C(F)(F)F)cc3)nc12 | 138
CCCCc1c(Cc2ccc(-c3ccccc3)c(-c3nnn[nH]3)c2)c(COC)nn1CC(F)(F)F | 48
O=C(OCCn1ccnc1)C(O)c1ccccc1 (stereo unspecified) | 131 to 132
COc1ccc(-c2cc3ccc(C(=O)O)cc3o2)cc1C12CC3CC(CC(C3)C1)C2 | 290
COc1ccc(NC(=O)c2ccc(Cl)c(Cl)c2)cc1Nc1cccc(C(F)(F)F)c1 | 151 to 152
O=C1OC(=O)[C@@H](Cl)[C@@H]1Cl (relative stereo) | 90 to 92
COCC(C#N)=Cc1cc(OC)c(OC)c(OC)c1 | 79 to 81
CCN(CC)CCNC(=O)c1cc(Cl)c(N)cc1OCCC(C)O (stereo unspecified) | 136 to 138
CC(=O)Nc1nc(C=O)cs1 | 196 to 199
C=CC[C@@H]1C[C@@H](COc2ccc(CCCCNC(=O)OC(C)(C)C)cc2)N(CCc2ccc3ccccc3c2)C1=O | 79 to 83
COc1cc(Nc2c(C#N)cnc3cc4cc(OCCN5CCC(O)CC5)c(OC)cc4cc23)c(Cl)cc1Cl | 193 to 198
COc1cc(C(=O)NCc2ccccc2)cc(NC(=O)c2ccccc2)n1 | 132 to 133
N=c1cc(N)nc2n1CCS2 | 146 to 148
COc1ccc2c(-c3ccccc3)csc2c1 | 58 to 59
CC(=O)Nc1ccc(SC(F)(F)C(F)F)cc1 | 134 to 135
CCCc1c(OCCCOc2ccccc2C(=O)O)ccc(C(C)=O)c1O | 105 to 108
CCCCCCC(C(=O)O)n1cc(Cc2ccccc2)c2cc(-c3ccccc3-c3nn[nH]n3)ccc21 (stereo unspecified) | 108 to 112
CCOCc1nc2cnc3cc(Br)ccc3c2n1C[C@@H]1COC(C)(C)O1 | 90 to 91
CSc1ccc(-c2c(NN)nc(Cl)nc2-c2ccccc2)cc1 | 272 to 274
CCOC(=O)/C=C/c1cn(Cc2ccc(OCc3csc(-c4ccccc4)n3)cc2)nc1-c1cccs1 | 104 to 105
Oc1ccc(Br)cc1-c1ccc2nonc2c1 | 179 to 181

Continued, values first:

melting point [°C] | Structure (SMILES)
250 to 252 | O=C1NC(=O)C(Cc2ccc(OC3=C(Cl)C(=O)c4ccccc4C3=O)cc2)S1 (stereo unspecified)
167 | COc1cc(S(N)(=O)=O)cc(C(=O)NC2CCN(CC3CCCCC3)C2)c1OC (stereo unspecified)
49 to 51 | CC(C)COc1ccccc1C(=N)N
118 to 119 | Nc1ccccc1-c1nc(CCS(=O)(=O)CCO)no1
135 to 136 | COc1ccc2c3c(c(=O)oc2c1)CN(CCc1ccccc1)CC3
> 250 | CC(CF)(CF)n1cc(C(=O)O)c(=O)c2cc(F)c(N3C[C@@H]4NCCO[C@@H]4C3)cc21
91 to 93 | Cc1ccc(-c2nc(CCl)c(C)o2)cc1
200 to 205 | C=Cc1cn(C)c2cc(-c3ccccc3Cl)c3c(c12)C(=O)NC3=O
166 to 168 | Nc1ncnc2c1c(-c1ccccc1)cn2-c1cccc(OCCCl)c1
195 to 196 | O=C(O)[C@@H]1C[C@H]1c1ccc([N+](=O)[O-])cc1 (relative stereo)
192 to 195 | Cc1noc(C)c1-c1cn(Cc2ccccc2)c(=O)c2cccnc12
136 to 137 | C=CC(=O)N(C)c1cccc2c(=O)c(C)c(-c3ccccc3)oc12
115 to 116 | OCc1cn(-c2ccc(Cl)cc2)cn1
90 to 91 | CCCC(=O)Nc1cccc(-c2cccc(OC)c2)c1
161 to 162 | COc1cccc(C(=O)c2[nH]c3cc(Cl)ccc3c2NC(C)=O)c1
174 to 175 | COc1ccc(S(=O)(=O)CC(CS(=O)(=O)c2ccc(OC)cc2)C(=O)O)cc1
222 to 223 | CCCOc1ccccc1-c1nc2nc(NCCCS(C)(=O)=O)ncc2c(=O)[nH]1
150 to 151 | COc1ccc(-c2c(NC(C)(C)Cc3ccccc3)c(=O)c2=O)cc1
166 to 167 | Cc1cc(C2N(c3ccccc3)CCN2c2ccccc2)cc(C)c1O

melting point [°C] | Structure (SMILES)
125 to 126 | CC(C)Cc1oc(-c2ccc(F)cc2)nc1CC(=O)O
80 to 82 | N#CC(NCc1cccnc1)c1ccoc1 (stereo unspecified)
98 to 100 | CC(C)(OCc1cc2cc(C(F)(F)F)ccc2n1S(=O)(=O)c1ccc2ncsc2c1)C(=O)O
220 to 222 | O=C(Nc1ccc2cc(CN3CCCCC3)ccc2c1)c1ccc(-c2ccc(Cl)cc2)cc1
159 | CCOC(=O)C1=C(C)NC(N)=C(C(=O)OCC)C1c1ccccc1[N+](=O)[O-] (stereo unspecified)
168 to 169 | CNCc1ccc2cc(O)ccc2c1
100 to 106 | CC(C)C[C@H](NC(=O)CCS(=O)(=O)c1ccccc1)C(=O)N[C@@H](C(C)C)[C@@H](O)c1c(-c2ccccc2)c1=O
228 to 229 | CCCC(=O)NC1Cc2ccc(-c3ccc(=O)[nH]n3)cc2C1 (stereo unspecified)
200 to 201 | NS(=O)(=O)c1c(Cl)cccc1CN1CCOC1=O
110 to 111 | Cc1noc(C)c1Cn1cc(N2C(=O)CN(CCc3cccc(F)c3)C2=O)cn1
94 to 97 | CCCCCCCCCc1ccc(C(=O)O)c(O)c1
121 to 123 | CS(=O)(=O)c1ccc(-c2cnn(CC(F)(F)F)c(=O)c2OCc2ccccc2)cc1
> 230 | Cc1ccccc1C(=O)Nn1c(=O)c(=O)[nH]c2ccc3ccc([N+](=O)[O-])cc3c21
269 to 271 | O=C(O)c1cc(=O)c2oc3ccc(Cl)cc3c(=O)c2n1Cc1ccccc1
188 to 192 | O=C(Nc1ccc(C(F)(F)F)cc1)N1CC2CSc3cc(Cl)ccc3C2=N1 (stereo unspecified)
163 | CC[C@H](NC(=O)c1cc(F)ccc1NS(=O)(=O)c1cccc2cccnc12)c1ccccc1
148 to 151 | CCOc1ccc(C2=NN(c3ccc(C(=O)N4CCN(c5cnn(-c6ccccc6)c(=O)c5Cl)CC4)cc3)C(=O)[C@@H]3CC=CC[C@H]23)cc1OCC
130 to 134 | O=C1c2c(OCc3ccccc3)cccc2-c2nn(CCN(CCO)Cc3ccccc3)c3ccc(Cl)c1c23
187 to 190 | O=C(NCc1ccc(F)cc1-n1cncn1)c1nc2n(c(=O)c1OCc1ccccc1)CCN2c1ccccc1

melting point [°C] | Structure (SMILES)
90 | CCc1cccc(NC(=O)C=C(C)C)c1
153 to 156 | CNCCOc1cccc2c1CC(=O)N2
98.2 to 99.2 | O=C(C=Cc1ccccc1)c1c(Cl)cccc1Cl
219 to 220 | COc1cccc(CNc2ncnc3c2sc2nc(N4CCOCC4)c4c(c23)CC(C)(C)CC4)c1OC
229 to 231 | CCCOc1ccccc1-c1ccc(-c2nnn[nH]2)c(=O)[nH]1
263 to 264 | Cc1[nH]c2ncnc(N3CCCc4ccccc43)c2c1C
260 to 262 | Cc1[nH]c(=O)ccc1-c1ccc(O)c([N+](=O)[O-])c1
218 to 220 | CN(C)Cc1cccc(-c2cc3c(Nc4ccc(F)c(Cl)c4)ncnc3[nH]2)c1
204 to 206 | CC1(C)COC(=O)N1c1nc(-c2ccc(C#N)c(F)c2)cs1
240 to 243 | Cc1nc(-n2ccc(O)cc2=O)sc1C(=O)NCc1ccccc1
180 | NC[C@@H]1CNc2cccc(-c3ccccc3C(F)(F)F)c2O1
195 to 197 | O=C(Cc1ccnc2c1NC(=O)c1cccnc1N2C1CC1)c1ccccc1
169 | CC(=O)Nc1ccc(Oc2ccc(S(C)(=O)=O)cc2C)cc1
190 | Cc1cc2c(NC(=S)N3Cc4ccsc4CC3CO)cccc2cn1 (racemic)
> 280 | Cc1c(-c2ccc3oc(=O)n(C)c3c2)nc2c(O)cccn12
278 to 281 | CCn1c(=O)c2[nH]c(/C=C/c3ccc(OC)c(OC)c3Cl)nc2n(CC)c1=O
155 | O=C1Nc2ccc(F)cc2C(C#CC2CC2)(C(F)(F)F)N1 (racemic)
145 | Cc1cc2c(NC(=S)N3Cc4sccc4CC3CO)cccc2cn1 (racemic)
